Reference: US20080249077A1, “17.Beta.-Fluoromethoxycarbonyl-Androst-4-En-3-One Compounds With a 17.Alpha.-Carbonate Sustituent” (priority 2005, published 2008)

Columns and labels:
glucocorticoid receptor [1] = target: T1, glucocorticoid receptor (Homo sapiens, UniProt P04150); experiment: Assay for transrepression activity of the glucocorticoid agonists (NF-κB responsive ELAM promoter-sPAP reporter, TNF-stimulated A549 cells); format: cell-based; details: compound 1 hour at 37° C., then TNF 10 ng/ml for 16 hours, read-out: pIC50 (transrepression) (converted)
T1 construct: A549 cells stably transfected with a reporter gene; endogenous in cells; host or cells: A549 cells
T1 sequence (P04150 1-777): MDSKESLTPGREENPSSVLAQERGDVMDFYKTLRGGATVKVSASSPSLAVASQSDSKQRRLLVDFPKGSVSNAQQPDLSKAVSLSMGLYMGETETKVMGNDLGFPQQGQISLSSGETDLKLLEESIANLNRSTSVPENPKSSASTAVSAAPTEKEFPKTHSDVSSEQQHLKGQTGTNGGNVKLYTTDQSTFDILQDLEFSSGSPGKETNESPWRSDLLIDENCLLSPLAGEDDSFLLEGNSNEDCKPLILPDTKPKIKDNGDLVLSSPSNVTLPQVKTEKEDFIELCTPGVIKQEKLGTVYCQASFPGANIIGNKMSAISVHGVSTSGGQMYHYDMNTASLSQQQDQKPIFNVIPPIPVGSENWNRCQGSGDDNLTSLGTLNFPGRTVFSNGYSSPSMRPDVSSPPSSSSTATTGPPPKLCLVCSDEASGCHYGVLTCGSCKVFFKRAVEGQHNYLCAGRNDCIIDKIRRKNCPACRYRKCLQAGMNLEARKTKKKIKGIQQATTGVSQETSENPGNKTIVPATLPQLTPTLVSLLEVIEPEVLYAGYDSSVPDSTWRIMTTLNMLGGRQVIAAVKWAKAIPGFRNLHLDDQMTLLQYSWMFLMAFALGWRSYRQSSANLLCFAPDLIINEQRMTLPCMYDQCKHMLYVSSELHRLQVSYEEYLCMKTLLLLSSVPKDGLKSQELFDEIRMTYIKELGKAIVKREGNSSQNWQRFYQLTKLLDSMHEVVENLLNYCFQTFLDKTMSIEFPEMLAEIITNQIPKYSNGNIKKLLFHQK
Experimental: Assay for Transrepression Activity of the Glucocorticoid Agonists
A549 cells stably transfected with a reporter gene containing the NF-κB responsive elements from the ELAM gene promoter coupled to sPAP (secreted alkaline phosphatase) are treated with test compounds at appropriate doses for 1 hour at 37° C. The cells are then stimulated with tumour necrosis factor (TNF, 10 ng/ml) for 16 hours, at which time the amount of alkaline phosphatase produced is measured by a standard colourimetric assay. Dose response curves were constructed from which EC50 values were estimated.

glucocorticoid receptor [2] = target: T1, glucocorticoid receptor; experiment: Assay for transactivation activity of the glucocorticoid agonists (MMTV-LTR renilla luciferase reporter in A549 cells); format: cell-based; details: compound 6 hour at 37° C., read-out: maximal response relative to Dexamethasone (100%) (transactivation)
Experimental: Assay for Transactivation Activity of the Glucocorticoid Agonists
The functional assay based on that described by R. J. H. Austin et al., Eur Resp J. (2002), 20, 1386-1392 measures the ability of compounds to directly transactivate gene expression. A549 cells stably transfected with a reporter gene containing the glucocorticoid responsive region of the mouse mammary tumour virus long terminal repeat (MMTV-LTR) coupled to renilla luciferase were treated with test compounds at appropriate doses for 6 hour at 37° C. The amount of luciferase activity present within the cells is then determined by measuring the light emitted following incubation with a suitable substrate. Dose response curves were constructed from which EC50 values were estimated and from which maximal responses are calculated relative to Dexamethasone (100%).

Row | Structure (SMILES) | IC50 (glucocorticoid receptor [1]) | Emax (glucocorticoid receptor [2])
1 | CC(C)C(C)OC(=O)O[C@]1(C(=O)OCF)[C@H](C)C[C@H]2[C@@H]3C[C@H](F)C4=CC(=O)C=C[C@]4(C)[C@@]3(F)[C@@H](O)C[C@@]21C (stereo partly drawn) [Example 9, Fluoromethyl(6α,11β,16α,17α)-17-({[(1,2-dimethylpropyl)oxy]carbonyl}oxy)-6,9-difluoro-11-hydroxy-16-methyl-3-oxoandrosta-1,4-diene-17-carboxylate] | < 0.1 nM | < 25%
2 | CCC(CC)COC(=O)O[C@]1(C(=O)OCF)[C@H](C)C[C@H]2[C@@H]3C[C@H](F)C4=CC(=O)C=C[C@]4(C)[C@@]3(F)[C@@H](O)C[C@@]21C [Example 6, Fluoromethyl(6α,11β,16α,17α)-17-({[(2-ethylbutyl)oxy]carbonyl}oxy)-6,9-difluoro-11-hydroxy-16-methyl-3-oxoandrosta-1,4-diene-17-carboxylate] | < 0.1 nM | < 25%
3 | C[C@@H]1C[C@H]2[C@@H]3C[C@H](F)C4=CC(=O)C=C[C@]4(C)[C@@]3(F)[C@@H](O)C[C@]2(C)[C@@]1(OC(=O)OC(C)(C)C)C(=O)OCF [Example 1, Fluoromethyl(6α,11β,16α,17α)-17-({[(1,1-dimethylethyl)oxy]carbony}oxy)-6,9-difluoro-11-hydroxy-16-methyl-3-oxoandrosta-1,4-diene-17-carboxylate] | < 0.1 nM | < 25%
4 | C[C@@H]1C[C@H]2[C@@H]3C[C@H](F)C4=CC(=O)C=C[C@]4(C)[C@@]3(F)[C@@H](O)C[C@]2(C)[C@@]1(OC(=O)OCC1CCCC1)C(=O)OCF [Example 15, Fluoromethyl(6α,11β,16α,17α)-17-({[(cyclopentylmethyl)oxy]carbonyl}oxy)-6,9-difluoro-11-hydroxy-16-methyl-3-oxoandrosta-1,4-diene-17-carboxylate] | < 0.1 nM | < 25%
5 | CC(OC(=O)O[C@]1(C(=O)OCF)[C@H](C)C[C@H]2[C@@H]3C[C@H](F)C4=CC(=O)C=C[C@]4(C)[C@@]3(F)[C@@H](O)C[C@@]21C)C1CCCC1 (stereo partly drawn) [Example 21A, Fluoromethyl(6α,11β,16α,17α)-17-({[(1-cyclopentylethyl)oxy]carbonyl}oxy)-6,9-difluoro-11-hydroxy-16-methyl-3-oxoandrosta-1,4-diene-17-carboxylate] | < 0.1 nM | 
6 | CC1CC2C3CC(F)C4=CC(=O)C=CC4(C)C3(F)C(O)CC2(C)C1(OC(=O)OC1CC2CCC1C2)C(=O)OCF (stereo not drawn) [Example 12, Fluoromethyl(6α,11β,16α,17α)-17-({[(1RS,2RS,4SR)-bicyclo[2.2.1]hept-2-yloxy]carbonyl}oxy)-6,9-difluoro-11-hydroxy-16-methyl-3-oxoandrosta-1,4-diene-17-carboxylate] |  | < 25%
7 | CC(OC(=O)O[C@]1(C(=O)OCF)[C@H](C)C[C@H]2[C@@H]3C[C@H](F)C4=CC(=O)C=C[C@]4(C)[C@@]3(F)[C@@H](O)C[C@@]21C)C(C)(C)C (single isomer, unassigned) [Example 23A, Fluoromethyl(6α,11β,16α,17α)-6,9-difluoro-11-hydroxy-16-methyl-3-oxo-17-({[(1,2,2-trimethylpropyl)oxy]carbonyl}oxy)androsta-14-diene-17-carboxylate] | < 0.1 nM | 
8 | CC[C@H]1CC[C@H](OC(=O)O[C@]2(C(=O)OCF)[C@H](C)C[C@H]3[C@@H]4C[C@H](F)C5=CC(=O)C=C[C@]5(C)[C@@]4(F)[C@@H](O)C[C@@]32C)CC1 (relative stereo) [Example 37, Fluoromethyl(6α,11β,16α,17α)-17-({[(trans-4-ethylcyclohexyl)oxy]carbonyl}oxy)-6,9-difluoro-11-hydroxy-16-methyl-3-oxoandrosta-1,4-diene-17-carboxylate] |  | < 25%
9 | C[C@@H]1C[C@H]2[C@@H]3C[C@H](F)C4=CC(=O)C=C[C@]4(C)[C@@]3(F)[C@@H](O)C[C@]2(C)[C@@]1(OC(=O)OC1CCCC(C)(C)C1)C(=O)OCF (single isomer, unassigned) [Example 19A, Fluoromethyl(6α,11β,16α,17α)-17-({[(3,3-dimethylcyclohexyl)oxy]carbonyl}oxy)-6,9-difluoro-11-hydroxy-16-methyl-3-oxoandrosta-1,4-diene-17-carboxylate] | < 0.1 nM | 
10 | C[C@@H]1C[C@H]2[C@@H]3C[C@H](F)C4=CC(=O)C=C[C@]4(C)[C@@]3(F)[C@@H](O)C[C@]2(C)[C@@]1(OC(=O)OC1CCCCCCC1)C(=O)OCF [Example 16, Fluoromethyl(6α,11β,16α,17α)-17-{[(cyclooctyloxy)carbonyl]oxy}-6,9-difluoro-11-hydroxy-16-methyl-3-oxoandrosta-1,4-diene-17-carboxylate] |  | < 25%
11 | CC1CC2C3CC(F)C4=CC(=O)C=CC4(C)C3(F)C(O)CC2(C)C1(OC(=O)OC1CC2CCC1(C)C2(C)C)C(=O)OCF [Example 29, Fluoromethyl(6α,11β,16α,17α)-6,9-difluoro-11-hydroxy-16-methyl-3-oxo-17-[({[(1R,2R,4R)-1,7,7-trimethylbicyclo[2.2.1]hept-2-yl]oxy}carbonyl)oxy]androsta-1,4-diene-17-carboxylate] |  | < 25%
12 | C[C@@H]1C[C@H]2[C@@H]3C[C@H](F)C4=CC(=O)C=C[C@]4(C)[C@@]3(F)[C@@H](O)C[C@]2(C)[C@@]1(OC(=O)O[C@H]1C(C)(C)[C@H]2CC[C@]1(C)C2)C(=O)OCF [Example 33, Fluoromethyl(6α,11β,16α,17α)-6,9-difluoro-11-hydroxy-16-methyl-3-oxo-17-[({[(1R,2R,4S)-1,3,3-trimethylbicyclo[2.2.1]hept-2-yl]oxy}carbonyl)oxy]androsta-1,4-diene-17-carboxylate] |  | < 25%
